According to paper PMC11510897 (2024):

Tested on: A5-S3G (DNA, aptamer) TCGGATAAAACCGGGCGGCGTTACACTAGGCG
Experiment: biolayer interferometry
Conditions: 150 mM NaCl, 2 mM MgCl2; 50 mM Tris-HCl, pH 7.5; tested at 1000 nM in aptasensor

- binding: no
Structure (SMILES): C=C1[C@@H](O)[C@@H]2O[C@]3(CC[C@H](/C=C/[C@@H](C)[C@@H]4CC(C)=C[C@@]5(O[C@H](C[C@@](C)(O)C(=O)O)CC[C@H]5O)O4)O3)CC[C@H]2O[C@@H]1[C@@H](O)C[C@H](C)[C@H]1O[C@@]2(CCCCO2)CC[C@H]1C
